We go through four compounds from patent US9951089B2, “Methods of treating a fatty acid amide hydrolase-mediated condition” (INFINITY PHARMACEUTICALS, INC., priority 2010, dated 2018).

A short description of series [1]: Solubility plot in 2-MeTHF:n-heptane. Format: physicochemical. Particulars: 2-MeTHF:n-heptane solvent mixture, organic solvent or mixture; mixture of 2-MeTHF:n-heptane, at least a 2:1 ratio. An excerpt: In order to further simplify the reaction workup transition, water-miscible THF was replaced with water immiscible 2-MeTHF as the reaction co-solvent with n-heptane, thus eliminating the need for MTBE in the workup. […] This afforded a relatively wide solubility range for both the reaction and the workup while still keeping the solvent volumes at reasonable levels for the telescoped steps.

Series [2] is described as follows: Solubility of drug product in water. The format is physicochemical. To be noted: crystalline solid. From the text:
(§1) In the clinic, protocol-specified portions of drug product are suspended in a vehicle consisting of commercially available medium viscosity USP carboxymethylcellulose sodium (CMC) in Sterile Water for Injection (SWFI). CMC is a chemically stable compound that is commonly used in oral pharmaceutical formulations and appears on the FDA list of substances that are Generally Recognized As Safe (GRAS).

Series [3] in a line: Compatibility study: stability of drug product suspended in CMC vehicle. The format is physicochemical. To be noted: suspension in carboxymethylcellulose sodium (CMC) vehicle.
Text: as §1

Series [4] is described as follows: Relative humidity stressing of Form A, XRPD read-out. Format: physicochemical. Particulars: 7 days. Here is the method: (§2) XRPD patterns were collected with an Inel XRG-3000 diffractometer. An incident beam of Cu Kα radiation was produced using a fine-focus tube and a parabolically graded multilayer mirror. Prior to the analysis, a silicon standard (NIST SRM 640c) was analyzed to verify the Si 111 peak position. A specimen of the sample was packed into a thin-walled glass capillary, and a beam-stop was used to minimize the background from air. Diffraction patterns were collected in transmission geometry using Windif v. 6.6 software and a curved position-sensitive Equinox detector with a 2θ range of 120°.
(§3) XRPD patterns were collected with a PANALYTICAL® X'Pert PRO MPD diffractometer using an incident beam of Cu radiation produced using an Optix long, fine-focus source. An elliptically graded multilayer mirror was used to focus Cu Kα X-rays through the specimen and onto the detector. Prior to the analysis, a silicon specimen (NIST SRM 640c) was analyzed to verify the Si 111 peak position. A specimen of the sample was sandwiched between 3 μm-thick films and analyzed in transmission geometry. A beam-stop and short antiscatter extension were used to minimize the background generated by air. Soller slits for the incident and diffracted beams were used to minimize broadening from axial divergence. Diffraction patterns were collected using a scanning position-sensitive detector (X'CELERATOR® located 240 mm from the specimen and Data Collector software v. 2.2b.
(§4) Form A crystal form of Compound 1 was subjected to (1) mechanical stressing experiments and (2) relative humidity stressing experiments, where the material was subjected to different levels of relative humidity (R.H.) and temperature.

Series [5] can be described thus: Mechanical stressing of Form A, XRPD read-out. Format: physicochemical. How it is done:
as §2, §3, §4

The nature of series [6]: Material B/Form A relative humidity stressing (conversion study). The format is physicochemical. To be noted: approximately 75% R.H. and 41° C.

Consider `OB(O)c1ccc(-c2cccc(F)c2)cc1F` [Compound 1, 3,3′-difluorobiphenyl-4-ylboronic acid], for which, in series [1], the solubility was above 100 mg/mL. The solubility in water entry in series [2] is listed as “sparingly soluble”. Also, the “stability of the drug product suspended in CMC” value in series [3] is on record as “at least 48 hours”.
For `Fc1cccc(-c2ccc(B3OB(c4ccc(-c5cccc(F)c5)cc4F)OB(c4ccc(-c5cccc(F)c5)cc4F)O3)c(F)c2)c1` [Compound 2, 2,4,6-tris(3,3′-difluorobiphenyl-4-yl)-1,3,5,2,4,6-trioxatriborinane], the melting point was in the range of 238 to 241 °C.
With `OB(O)c1ccc(-c2cccc(F)c2)cc1F` [Form A, 3,3′-difluorobiphenyl-4-ylboronic acid], the “stability to humidity stressing” value was “stable” in series [4] (75% R.H., about 40° C.); “stable” in series [4] (75% R.H., room temperature); “stable” in series [4] (97% R.H., room temperature). The “XRPD Result after relative humidity stressing” value is “Form A” in series [4] (75% RH, 40° C.); “Form A” in series [4] (75% RH, RT); “Form A” in series [4] (97% RH, RT). Besides, the “XRPD Result after mechanical stressing” value in series [5] (compress, 10,000 lb, 5 min., no solvent) was “Form A, low”; in series [5] (mill, 30 Hz, 20 min., ACN), “Form A”; in series [5] (mill, 30 Hz, 20 min., MEK), “Form A”; in series [5] (mill, 30 Hz, 20 min., THF) it was “Form A”; in series [5] (mill, 30 Hz, 20 min., no solvent), “Form A, low”.
`OB(O)c1ccc(-c2cccc(F)c2)cc1F` [Material B, 3,3′-difluorobiphenyl-4-ylboronic acid]: the “crystal form conversion under humidity stressing” value in series [6] (after 4, 7, and 14 days) is “The same mixture”; in series [6] (as early as 1 day) it was “convert to a mixture of Material B and Form A”.

As usually defined, the solubility is the dissolved amount per volume that the medium holds. For orientation: melting point means the temperature, or range, at which the solid turns liquid.
